From patent publication US20190049456A1, “METHOD FOR DETECTING OR SEPARATING/OBTAINING CIRCULATING TUMOR CELL EMPLOYING CELL PROLIFERATION METHOD” (priority 2016, published 2019)

System: circulating tumor cell (CTC)
Test: CTC obtainment test (CTCs-inducing ability / CTC yield efficiency) by culture of patient PBMCs in test culture media
Type: cell-based, human
Details: additive component study
Method: Examples of the present invention followed experimental methods given below. Specifically, all experimental samples (peripheral blood from various cancer patients who donated blood) were aseptically treated by procedures given below. In the case where infections by various viruses such as HBV and HCV were found in advance according to information from each cooperating facility, the treatment thereof was tested aside from a non-infected group and proper medical waste treatment was carried out by medical waste treatment professionals. 1. A disposable 30 ml syringe for blood collection containing an appropriate amount of an anticoagulant heparin sodium (0.05 ml) was provided, and a disposable 30 ml blood collection syringe for serum procurement containing no heparin sodium was also provided. These syringes were respectively connected to insertion ports of L-type 180° three-way stopcock, while an appropriate 18-, 21- or 24-gauge butterfly needle was connected to the vascular vessel side to prepare for blood collection. 30 ml of blood per each sample was collected, and the following separation operation was carried out. 2. For serum collection, the blood collection syringe barrel with a needle put thereon was placed at 37° C. for 1 hour in a 5% CO2 incubator, followed by centrifugation at 3,000 rpm (800 G) at 4° C. for 30 minutes. […]

How did the CTC-inducing effect turn out when lipopolysaccharide [LPS] was run?
The CTC-inducing effect was “slightly observed”.
